In paper PMC8219027, “A small-molecule inhibitor of the BRCA2-RAD51 interaction modulates RAD51 assembly and potentiates DNA damage-induced cell death” (Cell Chemical Biology, 2021):

Key:
PC3 = assay: cells; settings: Homo sapiens, PC-3, read-out: Absolute EC50, growth inhibition
RT112/84 = assay: cells; settings: Homo sapiens, RT112/84, read-out: Absolute EC50, growth inhibition
SW756 = assay: cells; settings: Homo sapiens, SW756, read-out: Absolute EC50, growth inhibition
A375 = assay: cells; settings: Homo sapiens, A-375, read-out: Absolute EC50, growth inhibition
Raji = assay: cells; settings: Homo sapiens, read-out: Absolute EC50, growth inhibition
HCT116 = assay: cells; settings: Homo sapiens, HCT-116, read-out: Absolute EC50, growth inhibition
[1] = test system: RAD51 clusters in EUFA423 + BRCA2 cells; assay: RAD51 molecular clustering by SMLM (d-STORM); type: cell-based, human; settings: 25 μM
Method: (§1) […]; [Howlett et al., 2002]). We developed, as isogenic controls, EUFA423 cells complemented by the expression of full-length BRCA2 (EUFA423 + BRCA2) ([Hattori et al., 2011]). […]. […] […].
(§2) Single Molecule Localization Microscopy (SMLM) was achieved by direct Stochastic Optical Reconstruction Microscopy (d-STORM) as described ([Haas et al., 2018]). Briefly, samples were prepared for one colour 2D d-STORM utilizing a buffer containing 100 mM MEA-HCL (Sigma, M6500), 10% glucose (Sigma), 0.5 mg/ml glucose oxidase (Sigma, G2133) and 40 μg/ml catalase (Sigma, C100) in water at pH 7.5. Samples were imaged by direct STORM at room temperature in sealed 8-well ibidi μ-slides utilizing an inverted N-STROM microscope (Nikon Ti, Japan) equipped with an Apochromat 100x/1.49 NA oil immersion objective. Samples were let to equilibrate for at least 30 minutes before imaging to minimize thermal drift. Images were then acquired with highly inclined illumination and focus was maintained by hardware autofocusing (Nikon Perfect Focus System). AlexaFluor647 was first pumped in its dark state using the 640 nm laser line at maximum power (~150 mW) and then imaged continuously with a power density of ~3 kW/cm^2. Data were acquired in ‘streaming mode’ with a field-of-view (FOV) of 256x256 pixels (160 nm pixel size), at 65 frames per second for 25,000 frames with an EMCCD camera (iXon Ultra DU897, Andor). The sparsity of single molecules per frame was controlled using ~0.6 mW of the 405 nm laser. Images of AlexaFluor647 were acquired with a Quad Band Set for TIRF applications (Chroma, TRF89901, ET – 405/488/561/640 nm) and the ET645/75 m emission filter (Chroma).
(§3) Single molecule data was analysed using the Grafeo program available at https://github.com/inatamara/Grafeo-dSTORM-analysis-, as described in ([Haas et al., 2018]). Briefly, all localizations with fewer than 1,000 detected photons or localization precision lower than 20 nm were discarded. Next, the data was filtered using 2D Voronoi diagrams, setting the minimum density (an inverse of Voronoi polygon VP size) to 5∗10^-5 nm^-2. […]

[2] = test system: RAD51 clusters in EUFA423 cells; assay: RAD51 molecular clustering by SMLM (d-STORM); type: cell-based, human; settings: 25 μM, 3 h after 3 Gy IR
Method: as §1, §2, §3

BT20 = assay: cells; settings: Homo sapiens, BT-20, read-out: Absolute EC50, growth inhibition
Caco-2 permeability = type: in vitro ADME; settings: human, Caco-2
Caco-2 = Caco-2 permeability; type: in vitro ADME; settings: summary of Table S1
BT549 = assay: cells; settings: Homo sapiens, BT-549, read-out: Absolute EC50, growth inhibition
[3] = Microsomal intrinsic clearance; settings: human, human microsomes
SK-OV-3 = assay: cells; settings: Homo sapiens, SK-OV-3, read-out: Absolute EC50, growth inhibition
CYP450 3A4 = target: T1, CYP450 3A4 (Homo sapiens, UniProt P08684); assay: CYP450 inhibition; type: in vitro ADME
T1 construct: Cyprotex (contract data)

K562 = assay: cells; settings: Homo sapiens, K562, read-out: Absolute EC50, growth inhibition
HFL-1 = assay: cells; settings: Homo sapiens, HFL1, read-out: Absolute EC50, growth inhibition
OVCAR3 = assay: cells; settings: Homo sapiens, OVCAR-3, read-out: Absolute EC50, growth inhibition
U20S = assay: cells; settings: Homo sapiens, read-out: Absolute EC50, growth inhibition
HL-60 = assay: cells; settings: Homo sapiens, HL-60, read-out: Absolute EC50, growth inhibition

T1 sequence (P08684 whole entry): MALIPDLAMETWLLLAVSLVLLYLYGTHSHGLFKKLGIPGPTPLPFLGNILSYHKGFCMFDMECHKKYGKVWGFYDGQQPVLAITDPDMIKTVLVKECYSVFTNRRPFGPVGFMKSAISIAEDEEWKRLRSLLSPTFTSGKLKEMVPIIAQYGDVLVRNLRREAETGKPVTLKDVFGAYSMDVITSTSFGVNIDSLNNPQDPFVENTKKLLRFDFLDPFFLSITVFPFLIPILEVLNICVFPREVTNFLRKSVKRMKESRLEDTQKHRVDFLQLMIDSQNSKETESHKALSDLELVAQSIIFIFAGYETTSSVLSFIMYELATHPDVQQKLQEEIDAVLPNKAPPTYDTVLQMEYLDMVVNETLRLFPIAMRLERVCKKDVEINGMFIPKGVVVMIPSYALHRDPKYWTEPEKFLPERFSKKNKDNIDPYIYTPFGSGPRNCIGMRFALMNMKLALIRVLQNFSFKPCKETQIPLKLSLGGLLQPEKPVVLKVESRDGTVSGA

Question: What does the source list for `COc1ccc([C@H](C)NC(=O)[C@@H]2C[C@@H](O)CN2C(=O)CNC(=O)c2ccc3cc(F)ccc3n2)c(Cl)c1` [CAM833, N-(2-((2S,4R)-2-(((S)-1-(2-chloro-4-methoxyphenyl)ethyl)carbamoyl)-4-hydroxypyrrolidin-1-yl)-2-oxoethyl)-6-fluoroquinoline-2-carboxamide]?
Answer: EC50 (PC3): 91.2 µM; EC50 (RT112/84): 70.6 µM; EC50 (SW756): 124 µM; EC50 (A375): 72 µM; EC50 (Raji): 95.6 µM; EC50 (HCT116): 63.5 µM; formation of elongated RAD51 filaments (in words) ([1]; 3 Gy IR): prevents the formation of elongated filaments; RAD51 accumulation in damage-induced foci (in words) ([1]; 3 h after 3 Gy IR): significantly reduces; RAD51 accumulation in damage-induced foci (in words) [2]: significantly reduces; EC50 (BT20): 61.9 µM; efflux ratio (Caco-2 permeability): 195; Papp A→B (Caco-2 permeability; A to B, read-out: Caco-2 permeability AtoB Papp): 0.23 ×10⁻⁶ cm/s; permeability (in words) (Caco-2): moderate; EC50 (BT549): 73.8 µM; half-life [3]: 1.28 h; microsomal CLint [3]: 18 ± 4.52 µL/min/mg; EC50 (SK-OV-3): 105 µM; IC50 (CYP450 3A4; 3A4 midazolam site): > 25 µM; IC50 (CYP450 3A4; 3A4 testosterone site): > 25 µM; EC50 (K562): 137 µM; EC50 (HFL-1): 98.8 µM; EC50 (OVCAR3): 53.6 µM; EC50 (U20S): 40.5 µM; EC50 (HL-60): 87.7 µM
